Experimental data: patent US20250270222A1, “AP2 ASSOCIATED KINASE 1 INHIBITORS AND USES THEREOF” (Satellos Bioscience Inc., priority 2023, published 2025)

Legend:
Format in all cases: biochemical
[1] = target: BIKE (amino acids S38-E345) (K320A, K321A) (Homo sapiens (Human), UniProt Q9NSY1, K320A/K321A); assay: BIKE pSENs assay
Procedure: (§1) The recombinant proteins were independently expressed in Esherichia coli BL21(DE3) cells cultured in Luria-Bertani (LB) medium until OD600 reached 0.6-0.8, then cooled to 15° C., and supplemented with 0.5 mM isopropyl 1-thio-D-galactopyranoside (IPTG) induce protein expression 16 h. Cells were harvested and resuspended in lysis buffer (50 mM HEPES pH 7.5, 500 mM NaCl, 5 mM imidazole, 5% glycerol, 0.5 mM Tris (2-carboxyethyl) phosphine (TCEP), cOmplete Protease Inhibitor Tablet (Roche)) and lysed by microfluidics high pressure homogenizer (UH-06, Union-Biotech). Proteins were purified using Ni-Affinity chromatography (His FF column, Bestchrom) and eluted stepwise in binding buffer with 20-300 mM imidazole. Removal of the hexahistidine tag was performed at 4° C. overnight using recombinant TEV protease and reacted with BirA to obtain the corresponding biotinylated-AAK1. BIKE or GAK proteins. Further separated in the reverse Strep column (Strep-Tactin® XT, IBA). The Biotin elution sample was collected containing untagged biotinylated protein was then purified by Ion-exchange chromatography (Mono Q 10/100 GL, Cytiva) and Size-exclusion chromatography (HiLoad 16/600 Superdex 200 pg, Cytiva). The pure protein was stored in a storage buffer 50 mM HEPES (pH 7.5), 300 mM NaCl, 5% glycerol at −80° C. Protein were characterized by SDS-PAGE. LC-MS and aSEC.
BIKE protein was dissolved at 20 nM in 1× enzyme solution (50 mM HEPES pH7.5, 10 mM MgCl2, 1 mM DTT, 1% glycerol, 0.5 mM EGTA, 0.01% Briji35, 0.02% BSA) and 12.5 ul was incubated with 250 nl DMSO or 250 nl compound in DMSO at 25° C. for 15 min. The reaction was started by addition of 12.5 ul of 30 uM AQT0759 (Assayquant, CSKS-AQT0759B) and 40 uM ATP which were diluted in 1× substrate dilution buffer (50 mM HEPES pH7.5, 10 mM MgCl2. 1 mM DTT, 1% glycerol, 0.5 mM EGTA, 0.01% Briji35).

[2] = target: GAK (amino acids Q25-N335) (Homo sapiens (Human), UniProt O14976); assay: GAK pSENs assay
Procedure: as §1
This example describes one illustrative method for determining the IC50 of the compounds of the present invention against GAK (amino acids Q25-N335).

[3] = target: AAK1 (amino acids T27-A365) (Homo sapiens (Human), UniProt Q2M2I8); assay: AAK1 pSENs assay; details: ratio of AAK1 pSENs activity to GAK pSENs activity
Outline: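 Untagged, biotinylated E. coli-expressed AAK1 at 20 nM preincubated with compound 15 min at 25° C in HEPES pH 7.5 buffer with 10 mM MgCl2 and 1 mM DTT. Reaction started with AQT0759 and ATP, added as 30 uM and 70 uM solutions in equal volume.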

Sequence of AAK1 (amino acids T27-A365) (Q2M2I8 27-365): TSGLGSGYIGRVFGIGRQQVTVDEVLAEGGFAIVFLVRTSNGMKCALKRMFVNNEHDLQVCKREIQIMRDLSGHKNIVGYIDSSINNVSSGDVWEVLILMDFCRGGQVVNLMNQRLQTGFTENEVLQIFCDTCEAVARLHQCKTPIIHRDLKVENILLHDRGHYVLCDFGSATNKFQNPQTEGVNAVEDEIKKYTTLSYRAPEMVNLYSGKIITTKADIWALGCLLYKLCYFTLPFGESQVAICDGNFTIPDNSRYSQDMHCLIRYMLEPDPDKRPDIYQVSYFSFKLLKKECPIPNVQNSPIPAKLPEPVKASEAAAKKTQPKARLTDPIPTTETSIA
Sequence of BIKE (amino acids S38-E345) (K320A, K321A) (Q9NSY1 38-345 K320A/K321A): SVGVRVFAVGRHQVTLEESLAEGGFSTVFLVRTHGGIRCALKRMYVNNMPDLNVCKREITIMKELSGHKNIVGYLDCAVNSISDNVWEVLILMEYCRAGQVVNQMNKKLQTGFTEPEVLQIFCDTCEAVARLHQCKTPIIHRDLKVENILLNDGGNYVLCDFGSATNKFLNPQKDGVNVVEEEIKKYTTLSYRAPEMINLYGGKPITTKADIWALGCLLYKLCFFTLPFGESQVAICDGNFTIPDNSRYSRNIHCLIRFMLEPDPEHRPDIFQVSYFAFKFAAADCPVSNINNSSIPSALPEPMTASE
Sequence of GAK (amino acids Q25-N335) (O14976 25-335): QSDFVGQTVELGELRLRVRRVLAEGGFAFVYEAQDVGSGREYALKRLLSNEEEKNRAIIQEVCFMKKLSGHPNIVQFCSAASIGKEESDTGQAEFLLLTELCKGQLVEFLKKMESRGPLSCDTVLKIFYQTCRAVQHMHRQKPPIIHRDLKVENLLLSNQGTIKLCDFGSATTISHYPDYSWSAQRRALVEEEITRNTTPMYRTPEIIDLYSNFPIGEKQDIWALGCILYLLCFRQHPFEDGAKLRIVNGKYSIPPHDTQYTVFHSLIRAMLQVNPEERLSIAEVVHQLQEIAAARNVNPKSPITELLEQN

SMILES | IC50 [1] [nM] | IC50 [2] [nM] | AAK1:GAK pSENs Selectivity [3]
CC1(OC(=O)N2CCN(c3ccn4ncc(-c5cccnc5OC5CCC5)c4n3)CC2)COC1 [Compound I-17, (3-Methyloxetan-3-yl) 4-[3-[2-(cyclobutoxy)-3-pyridyl]pyrazolo[1,5-a]pyrimidin-5-yl]piperazine-1-carboxylate] | > 1500 | > 1500 | B (B: 0.016-0.075)
CC1(OC(=O)N2CCN(c3ccn4ncc(-c5cccnc5OCC5CCC5)c4n3)CC2)COC1 [Compound I-19, 3-Methyloxetan-3-yl 4-(3-(2-(cyclobutylmethoxy)pyridin-3-yl)pyrazolo[1,5-a]pyrimidin-5-yl)piperazine-1-carboxylate] | > 1500 | > 1500 | D (D: 0.16-1.00)
CC1(OC(=O)N2CCN(c3ccn4ncc(-c5cccnc5OCC5COC5)c4n3)CC2)COC1 [Compound I-20] | > 1500 | – | D (D: 0.16-1.00)
CC(C)Oc1ncccc1-c1cnn2ccc(N3CCN(C(=O)O[C@@]4(C)CCNC4)CC3)nc12 [Compound I-21, [(3S)-3-Methylpyrrolidin-3-yl]4-[3-(2-isopropoxy-3-pyridyl)pyrazolo[1,5-a]pyrimidin-5-yl]piperazine-1-carboxylate] | > 1500 | – | B (B: 0.016-0.075)
O=C1NCC[C@H]1OC(=O)N1CCN(c2ccn3ncc(-c4cccnc4OC4CC4)c3n2)CC1 [Compound I-23, [(3R)-2-oxopyrrolidin-3-yl]-4-[3-[2-(cyclopropoxy)-3-pyridyl]pyrazolo[1,5-a]pyrimidin-5-yl]piperazine-1-carboxylate] | > 1500 | > 1500 | B (B: 0.016-0.075)
O=C1NCC[C@@H]1OC(=O)N1CCN(c2ccn3ncc(-c4cccnc4OC4CC4)c3n2)CC1 [Compound I-24, [(3S)-2-Oxopyrrolidin-3-yl]-4-[3-[2-(cyclopropoxy)-3-pyridyl]pyrazolo[1,5-a]pyrimidin-5-yl]piperazine-1-carboxylate] | > 1500 | > 1500 | B (B: 0.016-0.075)
O=C(O[C@@H]1CC(=O)N(C2CCNCC2)C1)N1CCN(c2ccn3ncc(-c4cccnc4OC4CC4)c3n2)CC1 [Compound I-33, (R)-5-Oxo-1-(piperidin-4-yl)pyrrolidin-3-yl 4-(3-(2-cyclopropoxypyridin-3-yl)pyrazolo[1,5-a]pyrimidin-5-yl)piperazine-1-carboxylate] | > 1500 | > 1500 | D (D: 0.16-1.00)
C[C@H]1CN(c2ccn3ncc(-c4cccnc4OC4CC4)c3n2)CCN1C(=O)O[C@@H]1CNC(=O)C1 [Compound I-40, [(3S)-5-Oxopyrrolidin-3-yl](2S)-4-[3-[2-(cyclopropoxy)-3-pyridyl]pyrazolo[1,5-a]pyrimidin-5-yl]-2-methyl-piperazine-1-carboxylate] | > 1500 | > 1500 | B (B: 0.016-0.075)
N#C[C@@H]1CN(c2ccn3ncc(-c4cccnc4OC4CC4)c3n2)CCN1C(=O)O[C@@H]1CNC(=O)C1 [Compound I-41, (S)-5-Oxopyrrolidin-3-yl (S)-2-cyano-4-(3-(2-cyclopropoxypyridin-3-yl)pyrazolo[1,5-a]pyrimidin-5-yl)piperazine-1-carboxylate] | > 1500 | > 1500 | B (B: 0.016-0.075)
O=C1C[C@H](OC(=O)N2CCN(c3ccn4ncc(-c5cccnc5OC5CC5)c4n3)C[C@H]2C(=O)O)CN1 [Compound I-41-4C, (S)-4-(3-(2-Cyclopropoxypyridin-3-yl)pyrazolo[1,5-a]pyrimidin-5-yl)-1-((((S)-5-oxopyrrolidin-3-yl)oxy)carbonyl)piperazine-2-carboxylic acid] | > 1500 | > 1500 | D (D: 0.16-1.00)
COC(=O)[C@@H]1CN(c2ccn3ncc(-c4cccnc4OC4CC4)c3n2)CCN1C(=O)O[C@@H]1CNC(=O)C1 [Compound I-41-5, 2-Methyl 1-((S)-5-oxopyrrolidin-3-yl) (S)-4-(3-(2-cyclopropoxypyridin-3-yl)pyrazolo[1,5-a]pyrimidin-5-yl)piperazine-1,2-dicarboxylate] | > 1500 | > 1500 | C (C: 0.076-0.15)
O=C1C[C@H](OC(=O)N2CCN(c3ccn4ncc(-c5cccnc5NC5CCC5)c4n3)CC2)CN1 [Compound I-46, [(3S)-5-oxopyrrolidin-3-yl]4-[3-[2-(cyclobutylamino)-3-pyridyl]pyrazolo[1,5-a]pyrimidin-5-yl]piperazine-1-carboxylate] | > 1500 | – | E (E: >1.00)
O=C1C[C@H](OC(=O)N2CCN(c3ccn4ncc(-c5cccnc5NC5CNC5)c4n3)CC2)CN1 [Compound I-49, (S)-5-oxopyrrolidin-3-yl 4-(3-(2-(azetidin-3-ylamino)pyridin-3-yl)pyrazolo[1,5a]pyrimidin-5-yl)piperazine-1-carboxylate] | > 1500 | – | –
C[C@@]1(OC(=O)N[C@H]2CCN(c3ccn4ncc(-c5cccnc5OC5CC5)c4n3)C2)CCNC1 [Compound I-57, (R)-3-methylpyrrolidin-3-yl ((S)-1-(3-(2-cyclopropoxypyridin-3-yl)pyrazolo[1,5-a]pyrimidin-5-yl)pyrrolidin-3-yl)carbamate] | > 1500 | – | C (C: 0.076-0.15)
O=C(O[C@H]1CO[C@H]2OCC[C@H]21)N1CCN(c2ccn3ncc(-c4cnccn4)c3n2)CC1 [Compound I-66, [(3aS,4R,6aR)-2,3,3a, 4,5,6a-hexahydrofuro[2,3-b]furan-4-yl]-4-(3-pyrazin-2-ylpyrazolo[1,5-a]pyrimidin-5-yl)piperazine-1-carboxylate] | > 1500 | – | D (D: 0.16-1.00)
[2H]C([2H])([2H])N1C[C@@H](OC(=O)N2CCN(c3nc4c(-c5cccnc5OC5CC5)cnn4cc3F)CC2)CC1=O [Compound I-116, [(3S)-5-oxo-1-(trideuteriomethyl)pyrrolidin-3-yl]4-[3-[2-(cyclopropoxy)-3-pyridyl]-6-fluoro-pyrazolo[1,5-a]pyrimidin-5-yl]piperazine-1-carboxylate] | – | > 1500 | A (A: ≤0.015)
[2H]C([2H])([2H])N1C[C@@H](OC(=O)N2CCN(c3nc4c(-c5cc(F)cnc5OC5CC5)cnn4cc3F)CC2)CC1=O [Compound I-118, [(3S)-5-oxo-1-(trideuteriomethyl)pyrrolidin-3-yl]4-[3-[2-(cyclopropoxy)-5-fluoro-3-pyridyl]-6-fluoro-pyrazolo[1,5-a]pyrimidin-5-yl]piperazine-1-carboxylate] | – | > 1500 | A (A: ≤0.015)
CN1C[C@@H](OC(=O)N2CCN(c3ccn4ncc(-c5cccnc5OC5CCOC5)c4n3)CC2)CC1=O (some centres unmarked) [Compound I-119] | – | > 1500 | B (B: 0.016-0.075)
CN1C[C@@H](OC(=O)N2CCN(c3nc4c(-c5cccnc5OC5CCOC5)cnn4cc3F)CC2)CC1=O (stereo partly drawn) [Compound I-120, [(3S)-1-methyl-5-oxo-pyrrolidin-3-yl]4-[6-fluoro-3-(2-tetrahydrofuran-3-yloxy-3-pyridyl)pyrazolo[1,5-a]pyrimidin-5-yl]piperazine-1-carboxylate] | – | > 1500 | B (B: 0.016-0.075)
CN1C[C@@H](OC(=O)N2CCN(c3nc4c(-c5cccnc5OC5CCCC5)cnn4cc3F)CC2)CC1=O [Compound I-121, [(3S)-1-methyl-5-oxo-pyrrolidin-3-yl]-4-[3-[2-(cyclopentoxy)-3-pyridyl]-6-fluoro-pyrazolo[1,5-a]pyrimidin-5-yl]piperazine-1-carboxylate] | – | > 1500 | B (B: 0.016-0.075)
CN1C[C@@H](OC(=O)N2CCN(c3nc4c(-c5cccnc5OC5CCOCC5)cnn4cc3F)CC2)CC1=O [Compound I-122] | – | > 1500 | A (A: ≤0.015)
